Where two headings read alike, the source gives them in different places. Each block holds one substance with its values, some of them ahead of it.
Assays:
[1] = biological target: anti-CD28 scFv (disulfide) (SEQ ID NO: 67); assay: Competition ELISA: peptide inhibition of anti-CD28 scFv (disulfide) binding to plate-bound CD28
Procedure: […] After a short pre-incubation period, the mixture of titrated peptide with fixed Ab-1 were added to the CD28 antigen coated plates. After a short incubation on the plates, bound Ab-1 was detected with a standard horse radish peroxidase conjugated secondary antibody.
(§1) The anti-CD28 Fab was fixed at a concentration of 1 nM and incubated with titrated 0-100 μM peptides.

[2] = test system: anti-CD28 scFv (SEQ ID NO: 35); assay: Kinetic binding by bio-layer interferometry (Octet RED96): anti-CD28 scFv to peptides; parameters: species or system human; conditions: for Kd: CD28 scFv titrated 100-12.5 nM, 200 nM peptide load
Procedure: (§2) Briefly, streptavidin biosensors were loaded with biotinylated peptides and baselined in buffer. […] After a short association period, sensors were transferred into buffer and the dissociation of bound anti-CD28 scFv was measured. The timing and steps of the experiment are shown in the accompanying table. Association and dissociation signals were recorded in real time and analyzed using a 1:1 binding model within the instrument software. Analysis using a 1:1 binding model enabled the calculation of the on and off rate constants as well as affinity, KD.
as §2, with “KD. FIGS. 48A-48F illustrate kinetic binding of anti-CD28 scFv binding to peptides as measured by Octet. FIGS. 48G-48U illustrate kinetic binding of peptides to the anti-CD28 scFv as measured by Octet.” for “KD.”

[3] = test system: anti-CD28 Fab (SEQ ID NOs: 202, 203); assay: Kinetic binding via BLI: peptides to anti-CD28 Fab; conditions: for Off rate t½: Table 18, anti-CD28 Fab; for Kd / t½: binding to anti-CD28 Fab
Procedure: Kinetic binding of the peptides of Table 1 to Ab-1 was evaluated using biolayer interferometry (BLI). […] Ab-1 was titrated in solution and associated onto the peptide loaded sensor. After a short association period, sensors were transferred into buffer and the dissociation of bound Ab-1 was measured. Association and dissociation signals were recorded in real time and analyzed using a 1:1 binding model within the instrument software. Analysis using a 1:1 binding model enabled the calculation of the on and off rate constants as well as affinity, KD.
Kinetic binding of the peptides to anti-CD28 Fab (SEQ ID NOs: 202, 203) was evaluated using BLI as described above.

[4] = biological target: anti-CD28 Fab (SEQ ID NOs: 202, 203); assay: Competition ELISA: peptide inhibition of anti-CD28 Fab binding to plate-bound CD28 (also alanine scanning peptides); conditions: anti-CD28 Fab fixed at 1 nM
Procedure: Ab-1 fixed at 1 nanomolar (nM) concentration was pre-incubated with 0-100 micromolar (μM) titrated peptides. After a short pre-incubation period, the mixture of titrated peptide with fixed Ab-1 were added to the CD28 antigen coated plates. After a short incubation on the plates, bound Ab-1 was detected with a standard horse radish peroxidase conjugated secondary antibody.
as §1

Ab-1 = assay: Kinetic binding via BLI (Octet): Ab-1 binding to peptide-loaded sensors; parameters: species or system human; conditions: Table 15, 100 nM Ab-1
Procedure: Kinetic binding of the peptides of Table 1 to Ab-1 was evaluated using biolayer interferometry (BLI). Briefly, biotinylated peptides were loaded onto a streptavidin coated Octet® SAX biosensor, quenched in biocytin, and baselined in buffer. Ab-1 was titrated in solution and associated onto the peptide loaded sensor. After a short association period, sensors were transferred into buffer and the dissociation of bound Ab-1 was measured. Association and dissociation signals were recorded in real time and analyzed using a 1:1 binding model within the instrument software. Analysis using a 1:1 binding model enabled the calculation of the on and off rate constants as well as affinity, KD.

[5] = Table 19, anti-CD28 scFv (disulfide) fixed at 0.3 nM, 0-100 μM peptide, read-out: Competition ELISA IC50
[6] = BLI Octet RED96, biotinylated peptide loaded on streptavidin sensor, anti-CD28 scFv 100-12.5 nM, 1:1 binding model
[7] = titrated 0-100 μM peptides, plate-bound CD28 antigen, read-out: anti-CD28 Fab Competition ELISA IC50
[8] = read-out: anti-CD28 scFv (disulfide) Competition ELISA IC50, anti-CD28 scFv fixed at 0.3 nM, titrated 0-100 μM peptides, plate-bound CD28 antigen
[9] = Table 18, 0-100 μM peptide, read-out: Competition ELISA IC50
[10] = Table 17, 0-100 μM peptide, read-out: Competition ELISA IC50

Chain of anti-CD28 Fab (SEQ ID NOs: 202, 203) (as listed by the source): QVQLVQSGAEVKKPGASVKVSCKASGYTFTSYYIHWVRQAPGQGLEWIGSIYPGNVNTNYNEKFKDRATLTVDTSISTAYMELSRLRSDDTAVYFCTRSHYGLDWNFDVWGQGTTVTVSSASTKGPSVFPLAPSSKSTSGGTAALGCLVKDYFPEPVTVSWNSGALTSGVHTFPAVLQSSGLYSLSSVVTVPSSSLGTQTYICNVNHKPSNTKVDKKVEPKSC
Chain of anti-CD28 Fab (SEQ ID NOs: 202, 203) (as listed by the source): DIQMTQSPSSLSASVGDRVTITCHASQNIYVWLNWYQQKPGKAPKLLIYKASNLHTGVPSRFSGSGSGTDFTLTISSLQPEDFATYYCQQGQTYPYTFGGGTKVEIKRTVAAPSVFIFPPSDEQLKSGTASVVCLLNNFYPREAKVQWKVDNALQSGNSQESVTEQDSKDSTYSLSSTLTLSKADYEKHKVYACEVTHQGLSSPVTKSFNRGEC
Chain of anti-CD28 scFv (disulfide) (SEQ ID NO: 67) (as listed by the source): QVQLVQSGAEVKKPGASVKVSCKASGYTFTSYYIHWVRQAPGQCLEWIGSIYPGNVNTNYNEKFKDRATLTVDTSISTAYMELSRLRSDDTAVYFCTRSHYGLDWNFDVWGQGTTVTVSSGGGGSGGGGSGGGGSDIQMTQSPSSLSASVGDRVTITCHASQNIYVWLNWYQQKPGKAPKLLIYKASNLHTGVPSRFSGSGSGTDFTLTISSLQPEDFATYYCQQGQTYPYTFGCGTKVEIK
Chain of anti-CD28 scFv (SEQ ID NO: 35) (as listed by the source): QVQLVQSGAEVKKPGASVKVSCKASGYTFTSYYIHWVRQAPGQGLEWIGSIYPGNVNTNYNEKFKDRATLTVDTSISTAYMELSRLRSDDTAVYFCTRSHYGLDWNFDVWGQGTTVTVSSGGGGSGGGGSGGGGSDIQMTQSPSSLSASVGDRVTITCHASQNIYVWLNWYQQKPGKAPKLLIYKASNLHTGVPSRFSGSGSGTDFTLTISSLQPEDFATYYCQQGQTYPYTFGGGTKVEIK

Substance: YCAGHSPINIGKCL [Peptide-36]
- IC50 [1, 5]: > 100 µM

Substance: MDWCPIDLWNECFF [Peptide-137]
- kdis [2, 6]: 0.00369 s⁻¹
- kon [2, 6]: 51400 M⁻¹ s⁻¹

- Off rate t½ [3]: 54 s
Substance: YCEGHLPEYIWKCL [Peptide-87, optimization library of Peptide-39]

Substance: SCAAGASYAWPYCL [Peptide-44]
- IC50 [1, 5]: > 100 µM

Substance: YCAGHAWQYINACL [Peptide-67, alanine scanning peptide of Peptide-39]
- IC50 [4, 7]: > 100 µM
- IC50 [1, 8]: > 100 µM

- Off rate t½ [3]: 48 s
- Kd [3]: 0.11 µM
- t½ [3]: 48 s
Substance: YCEGHLPEYRNKCL [Peptide-84, optimization library of Peptide-39]

Substance: YCAGHAWQAINKCL [Peptide-64, alanine scanning peptide of Peptide-39]
- IC50 [4, 7]: > 100 µM
- IC50 [1, 8]: > 100 µM

Substance: MDWCPRERWVDCFF [Peptide-156]
- kdis [2, 6]: 0.0115 s⁻¹
- kon [2, 6]: 41500 M⁻¹ s⁻¹

Substance: SCAAAASYAWPYCL [Peptide-52, alanine scanning peptide of Peptide-44]
- IC50 [4, 7]: > 100 µM
- IC50 [1, 8]: > 100 µM

Substance: SCAAGASAAWPYCL [Peptide-54, alanine scanning peptide of Peptide-44]
- IC50 [4, 7]: > 100 µM
- IC50 [1, 8]: > 100 µM

Substance: MDWCPLHMWHECFS [Peptide-141]
- kdis [2, 6]: 0.00497 s⁻¹
- kon [2, 6]: 39000 M⁻¹ s⁻¹

Substance: SCAAGASYAAPYCL [Peptide-55, alanine scanning peptide of Peptide-44]
- IC50 [4, 7]: > 100 µM
- IC50 [1, 8]: > 100 µM

Substance: MDWCPRDLWVHCFA [Peptide-1]
- kdis [2, 6]: 0.00154 s⁻¹
- kon [2, 6]: 36400 M⁻¹ s⁻¹

Substance: MDWCPRDMWSECFA [Peptide-148]
- kdis [2, 6]: 0.0032 s⁻¹
- kon [2, 6]: 16700 M⁻¹ s⁻¹

Substance: MDWCPVHLWSVCFA [Peptide-155]
- kdis [2, 6]: 0.00443 s⁻¹
- kon [2, 6]: 92300 M⁻¹ s⁻¹

Substance: MDWCPRDMWDECFA [Peptide-147]
- kdis [2, 6]: 0.00433 s⁻¹
- kon [2, 6]: 28400 M⁻¹ s⁻¹

Substance: MDWCPIHLWHVCFN [Peptide-138]
- kdis [2, 6]: 0.00295 s⁻¹
- kon [2, 6]: 59100 M⁻¹ s⁻¹

Substance: YCAGAAWQYINKCL [Peptide-61, alanine scanning peptide of Peptide-39]
- IC50 [4, 7]: > 100 µM
- IC50 [1, 8]: > 100 µM

Substance: ACAGHAWQYINKCL [Peptide-59, alanine scanning peptide of Peptide-39]
- IC50 [4, 7]: > 100 µM
- IC50 [1, 8]: > 100 µM

Substance: MDWCPRFMWDECFN [Peptide-150]
- kdis [2, 6]: 0.00364 s⁻¹
- kon [2, 6]: 27100 M⁻¹ s⁻¹

- Off rate t½ [3]: 24 s
- Kd [3]: 0.831 µM
- t½ [3]: 24 s
Substance: YCEGHAPEYIAKCL [Peptide-73, optimization library of Peptide-39]

- IC50 [4, 9]: > 100 µM
Substance: YCWSHSPPFIKKCY [Peptide-83, optimization library of Peptide-39]

- Octet signal (20 nM peptide) (Ab-1): 0.1733
Substance: Met(O)-DWCPRDLWVHCFA [Peptide-20]

Substance: SCAAGASYAWAYCL [Peptide-56, alanine scanning peptide of Peptide-44]
- IC50 [4, 7]: > 100 µM
- IC50 [1, 8]: > 100 µM

Substance: MDWCPLYLWNECFN [Peptide-142]
- kdis [2, 6]: 0.00252 s⁻¹
- kon [2, 6]: 36700 M⁻¹ s⁻¹

Substance: MDWCPRDLWHECFA [Peptide-144]
- kdis [2, 6]: 0.00277 s⁻¹
- kon [2, 6]: 30000 M⁻¹ s⁻¹

- Octet signal (20 nM peptide) (Ab-1): 0.4179
Substance: Met(O)2-DWCPRDLWVHCFA [Peptide-21]

Substance: YCAAHAWQYINKCL [Peptide-60, alanine scanning peptide of Peptide-39]
- IC50 [4, 7]: > 100 µM
- IC50 [1, 8]: > 100 µM

- IC50 [4, 10]: > 100 µM
Substance: LCAAGFTYPWPLCL [Peptide-107, optimization library of Peptide-44]

- Off rate t½ [3]: 30 s
- Kd [3]: 0.926 µM
- t½ [3]: 30 s
Substance: YCEGHLPEYIEKCL [Peptide-72, optimization library of Peptide-39]

Substance: MDWCPRYLWHVCFA [Peptide-153]
- kdis [2, 6]: 0.00187 s⁻¹
- kon [2, 6]: 88900 M⁻¹ s⁻¹

Substance: MDWCPRSLWHECFA [Peptide-152]
- kdis [2, 6]: 0.00201 s⁻¹
- kon [2, 6]: 38900 M⁻¹ s⁻¹

Substance: MHWCPVDLWYLCYN [Peptide-154]
- kdis [2, 6]: 0.00186 s⁻¹
- kon [2, 6]: 88200 M⁻¹ s⁻¹

Substance: MNWCPKDIWYLCFN [Peptide-140]
- kdis [2, 6]: 0.00684 s⁻¹
- kon [2, 6]: 77000 M⁻¹ s⁻¹

- Off rate t½ [3]: 60 s
- Kd [3]: 0.0447 µM
- t½ [3]: 60 s
Substance: YCEGHLPEYLAKCL [Peptide-79, optimization library of Peptide-39]

- IC50 [4, 10]: > 100 µM
Substance: LCKPGVPYKWPTCL [Peptide-108, optimization library of Peptide-44]

Substance: MDWCPIYLWSECFN [Peptide-139]
- kdis [2, 6]: 0.00153 s⁻¹
- kon [2, 6]: 29000 M⁻¹ s⁻¹

Substance: MDWCPRDLWDLCFA [Peptide-143]
- kdis [2, 6]: 0.00351 s⁻¹
- kon [2, 6]: 35900 M⁻¹ s⁻¹

Substance: MDWCPRDLWSECFF [Peptide-146]
- kdis [2, 6]: 0.0031 s⁻¹
- kon [2, 6]: 38800 M⁻¹ s⁻¹

Substance: MDWCPRDLWHLCFS [Peptide-145]
- kdis [2, 6]: 0.00265 s⁻¹
- kon [2, 6]: 51100 M⁻¹ s⁻¹

Substance: YCAGHAWQYANKCL [Peptide-65, alanine scanning peptide of Peptide-39]
- IC50 [1, 8]: > 100 µM

Substance: WCWDYKLWVPMTCP [Peptide-37]
- IC50 ([4]; Table 16, 0-100 μM peptide, read-out: Competition ELISA IC50): > 100 µM
- IC50 [1, 5]: > 100 µM

Substance: GYCHYWGDMVMWCG [Peptide-118]
- Kd ([2]; Table 28, 1:1 model): 0.017 µM
- kdis ([2]; Table 28, CD28 scFv, 1:1 model): 0.00167 s⁻¹
- kon ([2]; Table 28, CD28 scFv, 1:1 model): 98700 M⁻¹ s⁻¹

- IC50 [4, 9]: > 100 µM
Substance: HCSGHHWLQVWKCF [Peptide-82, optimization library of Peptide-39]

Substance: YCAGHAWQYINKCL [Peptide-39]
- Off rate t½ [3]: 42 s
- Kd [3]: 2.02 µM
- t½ [3]: 36 s
- IC50 [1, 5]: > 100 µM

Substance: SCAAGASYAWPYCA [Peptide-58, alanine scanning peptide of Peptide-44]
- IC50 [1, 8]: > 100 µM

Substance: MDWCPRERWVDCFF [Peptide-116]
- Kd ([2]; Table 28, 1:1 model): 0.377 µM
- kdis ([2]; Table 28, CD28 scFv, 1:1 model): 0.0123 s⁻¹
- kon ([2]; Table 28, CD28 scFv, 1:1 model): 32500 M⁻¹ s⁻¹

- Off rate t½ [3]: 54 s
- t½ [3]: 60 s
Substance: YCEGHLPEYIQKCL [Peptide-86, optimization library of Peptide-39]

- Off rate t½ [3]: 36 s
- t½ [3]: 36 s
Substance: YCEGHLPEYREKCL [Peptide-78, optimization library of Peptide-39]

Substance: MDWCPRDMWSVCFS [Peptide-149]
- kdis [2, 6]: 0.00812 s⁻¹
- kon [2, 6]: 21700 M⁻¹ s⁻¹

Substance: MDWCPRHMWNYCFA [Peptide-151]
- kdis [2, 6]: 0.00218 s⁻¹
- kon [2, 6]: 61900 M⁻¹ s⁻¹
